Laboratory results as given in ChEMBL document CHEMBL1128187, “1 alpha,25-dihydroxyvitamin D3 analogs featuring aromatic and heteroaromatic rings: design, synthesis, and preliminary biological testing” (1995).

What was measured:
Format in all cases: functional
Rattus norvegicus [1] = species: Rattus norvegicus; experiment: Patch clamp determination of calcium current in rat Osteosarcoma cells at 0.5 nM
Rattus norvegicus [2] = species: Rattus norvegicus; experiment: Patch clamp determination of calcium current in rat Osteosarcoma cells at 50.0 nM
Rattus norvegicus [3] = species: Rattus norvegicus; experiment: Patch clamp determination of calcium current in rat Osteosarcoma cells at 5.0 nM

C[C@H](CCCC(C)(C)O)[C@H]1CC[C@H]2C(c3ccc(CO)c(CO)c3)=CCC[C@]12C
Ca2+ current (Rattus norvegicus [1]): -0.08 mV
Ca2+ current (Rattus norvegicus [2]): 7.03 mV
Ca2+ current (Rattus norvegicus [3]): 1.45 mV

C[C@@H](COCCCC(C)(C)O)[C@H]1CC[C@H]2C(c3ccc(CO)c(CO)c3)=CCC[C@]12C
Ca2+ current (Rattus norvegicus [1]): 0.02 mV
Ca2+ current (Rattus norvegicus [2]): 0.63 mV
Ca2+ current (Rattus norvegicus [3]): 0.15 mV

C=C1/C(=C\C=C2/CCC[C@]3(C)[C@@H]([C@H](C)CCCC(C)(C)O)CC[C@@H]23)C[C@@H](O)C[C@@H]1O [CALCITRIOL]
Ca2+ current (Rattus norvegicus [1]): 5.73 mV
Ca2+ current (Rattus norvegicus [2]): 10.2 mV
Ca2+ current (Rattus norvegicus [3]): 9.79 mV
